These are literature values, as cited in PMC11387175, “Model informed dose regimen optimizing in development of leritrelvir for the treatment of mild or moderate COVID-19” (Frontiers in Pharmacology, 2024).

Where two headings read alike, the source gives them in different places.

This data set relates to Delta variant. Details: method as in Chen et al., 2023. The note with it: ref Chen et al., 2023, cited from earlier work.

As to `O=C(NC1CCCC1)C(=O)[C@H](C[C@@H]1CCNC1=O)NC(=O)[C@@H]1[C@H]2CCC[C@H]2CN1C(=O)[C@@H](NC(=O)C(F)(F)F)C1CCCCC1` [leritrelvir], the lung pathology result was “favorable enhancements” and the “viral titers in the lungs of mice after infection” value is recorded as “significantly reduced”. For the same compound, under “300 mg/kg”, the inhibition rate is 42.86%. For the same compound, the inhibition rate (600 mg/kg) is 100%.
